Values joined by “and” are separate entries in the source; they are usually repeats but may differ in a detail not shown here. Equal entries are not always repeated. “Also recorded” adds a separate entry of the source.
Legend:
[1] = patients with AIDS and the AIDS-related complex; cited from earlier work
[2] = Plaque index in patients with periodontal disease, oral CoQ10 trial; format: in vivo, human; design: Plaque Index, 2 Months: scale not given here
Description: (§1) Twenty-two systemically healthy patients with periodontal disease, 11 males and 11 females, ages 33 to 66, participated in this trial. These volunteers were treated orally with 100 mg of CoQ10 per day for two months. Informed consent forms were signed prior to the study. Periodontal examinations and peripheral blood analyses were made before and during the trial. During the trial, the patients were not provided any routine periodontal treatment, and the staff gave them no information about oral hygiene to the patients.
(§2) The gingival index (8) and plaque index (9) were criteria to assess to degrees of gingival inflammation and accumulation of plaque on the teeth, respectively. The periodontal pocket depth was measured in interdental regions of buccal gingiva. The deepest pocket which was measured before administration of CoQ10 was selected for direct examination of oral bacteria by a microscope. The subgingival plaques were obtained with a curette, and were then dispersed in physiological saline which contained 1% gelatin, and were then prepared for analysis by phase contrast microscopy. The biopsies were viewed by means of a DS/300 microscope system (Dental Scientific Systems, Inc., VA) at 400× magnification. Small spirochetes, large spirochetes, spinning rods, spiral rods, small gliding rods, large gliding rods and palisading rods were identified as based upon cellular morphology and active motility. The following scores were used in each category: 0, no bacterial cells; 1, 1-9 cells; 2, 10-39 cells; and 3, more than 40 cells.
(§3) A paired-t test was used for the statistical analysis of differences in the gingival index, the plaque index, the blood CoQ10 levels, and the T4/TS ratios before and after the administration. The Wilcoxson test was used to test scores in microscopic analysis.

[3] = test system: tumors induced by dibenzpyrene; details: cited from earlier work
Blood CoQ10 level = format: in vivo, human
Description: as §1
(§4) About 3 ml of peripheral blood was drawn for determination of CoQ10 levels and the T4/T8 ratios. The determination of the COQ10 level was performed as described by Ye et al. (10). T4(CD4) and T8 (CD8) monoclonal antibodies were purchased from Coulter Immunology, Hialeah, Fla. The lymphocytes were stained according to the two-color fluorescence, and the flow cytometric analysis was performed on an Epics Profile cell sorter (Coulter Electronics Inc., Hileah, Fla.).The sample preparations and staining procedures were performed as described by Parker et al. (11).
as §3

[4] = cited from earlier work
[5] = Gingival index in patients with periodontal disease, oral CoQ10 trial; format: in vivo, human; design: Gingival Index, 2 Months: scale not given here
Description: as §1, §2, §3

[6] = test system: subgingival microorganisms; assay: Phase contrast microscopy of subgingival plaque: total motile microorganisms; format: in vivo, human; design: key to Total subgingival microorganism score, 2 Months: 0 = no cells, 1 = 1-9, 2 = 10-39, 3 = >40 cells per category
Description: as §1
as §2, with “Small spirochetes, large spirochetes, spinning rods, spiral rods, small gliding rods, large gliding rods and palisading rods were identified as based upon cellular morphology and active motility. The following scores were used in each category: 0, no bacterial cells; 1, 1-9 cells; 2, 10-39 cells; and 3, more than 40 cells.” left out

[7] = oral administration (ref 14); cited from earlier work
Plasmodium berghei = details: mice infected with Plasmodium berghei; cited from earlier work
[8] = Periodontal pocket depth in patients with periodontal disease, oral CoQ10 trial; format: in vivo, human
Description: as §1, §2

[9] = oral administration (ref 5); cited from earlier work
spirochetes = assay: Phase contrast microscopy of subgingival plaque: spirochetes; format: in vivo, human
Description: as §1
as §2, with “Small spirochetes, large spirochetes, spinning rods, spiral rods, small gliding rods, large gliding rods and palisading rods were identified as based upon cellular morphology and active motility. The following scores were used in each category: 0, no bacterial cells; 1, 1-9 cells; 2, 10-39 cells; and 3, more than 40 cells.” left out

motile rods = assay: Phase contrast microscopy of subgingival plaque: motile rods; format: in vivo, human
Description: as §1
as §2, with “Small spirochetes, large spirochetes, spinning rods, spiral rods, small gliding rods, large gliding rods and palisading rods were identified as based upon cellular morphology and active motility. The following scores were used in each category: 0, no bacterial cells; 1, 1-9 cells; 2, 10-39 cells; and 3, more than 40 cells.” left out

T4/T8 lymphocytes = assay: T4/T8 lymphocyte ratio in peripheral blood by flow cytometry; format: in vivo, human
Description: as §1, §4, §3

[10] = individual patients (one line per ID #), 100 mg CoQ10 per day orally for 2 months
[11] = 22 patients, 100 mg orally for two months, p<0.001
[12] = individual patients, peripheral blood, 100 mg CoQ10 per day orally
[13] = 22 patients, 100 mg orally for two months, p<0.01
[14] = individual patients, sum of category scores (0 no motile cells, 1 1-9, 2 10-39, 3 more than 40 cells per microscopic field), 100 mg/day orally

COC1=C(OC)C(=O)C(C/C=C(\C)CC/C=C(\C)CC/C=C(\C)CC/C=C(\C)CC/C=C(\C)CC/C=C(\C)CC/C=C(\C)CC/C=C(\C)CC/C=C(\C)CCC=C(C)C)=C(C)C1=O [CoQ10, coenzyme Q10]
Host defense mechanisms [1]: enhanced | Change of plaque index ([2]; 22 patients, 100 mg orally for two months): did not change; also recorded: no change | Plaque Index, 2 Months [2, 10]: 0.0 (5×) and 0.6 (3×) and 0.3 (2×) and 0.2 (4×) and 0.1 (4×) and 0.4 (3×) and 2.0 | Plaque Index, 2 Months, Mean ([2]; mean of 22 patients, S.D. 0.4, before 0.3, not significant, 100 mg/day orally): 0.3 + | Number of survivors ([3]; dibenzpyrene tumor model, mice): increase | Percentage of mice with tumors ([3]; mice susceptible to dibenzpyrene-induced tumors): reduction | Tumor size or number ([3]; mice that developed tumors): reduction | Change of blood level of CoQ10 (Blood CoQ10 level; [11]): increased in all of the patients | CoQ10 level, 2 months, Mean + S.D. (Blood CoQ10 level; 22 patients, before 0.82 + 0.19, p <0.001): 1.75 + 0.37 ug/ml | CoQ10 level, 2 months (Blood CoQ10 level; [12]): 1.60 µg/mL and 1.94 µg/mL and 1.59 µg/mL and 2.29 µg/mL and 2.39 µg/mL and 1.16 µg/mL and 1.99 µg/mL and 1.44 µg/mL and 2.37 µg/mL and 1.72 µg/mL and 2.22 µg/mL and 1.30 µg/mL and 2.10 µg/mL and 1.88 µg/mL and 1.65 µg/mL and 1.75 µg/mL and 1.74 µg/mL and 1.90 µg/mL and 1.55 µg/mL and 1.57 µg/mL and 1.26 µg/mL and 1.17 µg/mL | Gingival inflammation ([4]; earlier clinical trials (refs 2,3,5)): improvement | Periodontal pocket depth ([4]; earlier clinical trials (refs 2-5)): improvement | Tooth mobility ([4]; earlier clinical trials (refs 3-5)): improvement | Change of gingival index [5, 13]: decreased | Gingival Index, 2 Months [5, 10]: 0.5 (3×) and 0.7 (3×) and 0.1 (2×) and 0.2 (3×) and 0.3 (3×) and 1.0 (2×) and 1.4 (2×) and 1.1 and 1.3 and 0.4 and 0.8 | Gingival Index, 2 Months, Mean ([5]; mean of 22 patients, S.D. 0.4, before 0.9, p <0.001, 100 mg/day orally): 0.6 + | Total subgingival microorganism score, 2 Months ([6]; individual patients, motile rods plus spirochetes scores, 100 mg/day orally): 6 (6×) and 3 (4×) and 0 (4×) and 8 (3×) and 1 (2×) and 2 and 5 and 7 | Patients in whom all motile microorganisms in the gingiva disappeared ([6]; of 22 patients, 100 mg orally for two months): 4/22 and four | Activities of the CoQ10-dependent enzymes in inflamed dog gingiva [7]: increase | CoQ10 levels in inflamed dog gingiva [7]: increase | Effectiveness of chloroquin (Plasmodium berghei): potentiated | Parasitemia in the red blood cells (Plasmodium berghei): reduced | Survival time (Plasmodium berghei): prolonged | Survivors (Plasmodium berghei): increased | Change of pocket depth [8, 11]: decreased | Pocket Depth, 2 Months [8, 10]: 2.3 mm (3×) and 2.7 mm (2×) and 1.9 mm and 2.4 mm and 2.6 mm (3×) and 2.9 mm (2×) and 2.2 mm and 1.8 mm and 3.6 mm and 3.4 mm and 2.8 mm (2×) and 2.5 mm and 3.0 mm and 4.5 mm and 3.7 mm | Pocket Depth, 2 Months, Mean ([8]; mean of 22 patients, S.D. 0.6, before 3.0, p <0.001, 100 mg/day orally): 2.8 + mm | Oxygen utilization in inflamed human gingiva [9]: increase | Change of spirochetes (spirochetes; 22 patients, 100 mg orally for two months, p<0.02): decreased; also recorded: significant reduction | Spirochetes score, 2 Months (spirochetes; [14]): 3 (8×) and 0 (7×) and 4 and 1 (3×) and 6 (2×) and 2 | Change of motile rods (motile rods; [13]): decreased; also recorded: significant reduction | Motile Rods score, 2 Months (motile rods; [14]): 3 (5×) and 0 (7×) and 4 (2×) and 1 (3×) and 2 (3×) and 6 and 5 | Change of T4/T8 ratio (T4/T8 lymphocytes; [11]): significantly increased | T4/T8 Ratio, 2 months, Mean + S.D. (T4/T8 lymphocytes; 22 patients, before 2.9 + 1.0, p <0.001): 3.4 + 1.3 | T4/T8 Ratio, 2 months (T4/T8 lymphocytes; [12]): 2.3 and 3.1 and 2.8 (2×) and 4.9 and 3.5 and 4.0 and 1.9 and 2.7 and 7.1 and 3.7 and 2.0 (2×) and 6.2 and 2.9 and 3.2 (2×) and 3.9 and 3.4 and 2.4 and 3.6 and 3.8 | Patients with evident increase of T4/T8 ratio (T4/T8 lymphocytes; out of 22): 17 patients
